For one compound, Activity and Kd results are on record in ChEMBL document CHEMBL1146233, “Modification of the ceramide moiety of isoglobotrihexosylceramide on its agonist activity in stimulation of invariant natural killer T cells” (J Med Chem, 2007).

Active and inactive are the calls of the source. The rule behind the calls is not given here.

For experiment [1], the system named is iNKT. Kind of experiment: Stimulation of hCD1d-restricted human iNKT cells assessed as IFN-gamma release at 10 ng/mL by ELISA. It counts as functional, cell-based. For orientation: ELISA stands for enzyme-linked immunosorbent assay.
Experiment [2] has as its system iNKT. Description: Stimulation of hCD1d-restricted human iNKT cells assessed as IL4 release at 10 ng/mL by ELISA. In kind it is functional, cell-based.
Experiment [3] in a line: Binding affinity to T cell receptor. It counts as cell-based, Homo sapiens.

For `CCCCCCCCCCCCCCCCCCCCCCCCCC(=O)N[C@@H](CO[C@H]1O[C@H](CO)[C@H](O)[C@H](O)[C@H]1O)[C@H](O)[C@H](O)CCCCCCCCCCCCCC` [RGI-7000], the result with iNKT [1] and with iNKT [2] was Active. Also, in experiment [3], the Kd (as a rule, a measure of binding affinity in units of concentration) turned out to be 350 nM.
